Measured values as given in US6649366B2, “Methods and compositions related to modulators of annexin and cartilage homeostasis” (SmithKline Beecham Corporation, priority 1999, dated 2003).
“Also recorded” adds a separate entry of the source.

Legend:
[1] = molecular target: T1, annexin III (Homo sapiens, UniProt P12429); conditions: liposomes; cited from earlier work
T1 sequence (P12429 1-323): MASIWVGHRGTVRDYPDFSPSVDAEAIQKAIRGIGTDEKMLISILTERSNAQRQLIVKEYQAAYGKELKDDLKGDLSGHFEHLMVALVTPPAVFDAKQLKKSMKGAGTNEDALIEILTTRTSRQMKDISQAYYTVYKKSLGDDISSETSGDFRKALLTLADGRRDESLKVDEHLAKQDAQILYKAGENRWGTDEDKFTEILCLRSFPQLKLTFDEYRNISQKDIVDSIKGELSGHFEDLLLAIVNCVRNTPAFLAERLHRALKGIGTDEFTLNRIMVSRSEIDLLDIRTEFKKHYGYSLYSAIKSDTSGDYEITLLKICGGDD

[2] = molecular target: T2, annexin V (Homo sapiens, UniProt P08758); conditions: liposomes; cited from earlier work
T2 sequence (P08758 1-320): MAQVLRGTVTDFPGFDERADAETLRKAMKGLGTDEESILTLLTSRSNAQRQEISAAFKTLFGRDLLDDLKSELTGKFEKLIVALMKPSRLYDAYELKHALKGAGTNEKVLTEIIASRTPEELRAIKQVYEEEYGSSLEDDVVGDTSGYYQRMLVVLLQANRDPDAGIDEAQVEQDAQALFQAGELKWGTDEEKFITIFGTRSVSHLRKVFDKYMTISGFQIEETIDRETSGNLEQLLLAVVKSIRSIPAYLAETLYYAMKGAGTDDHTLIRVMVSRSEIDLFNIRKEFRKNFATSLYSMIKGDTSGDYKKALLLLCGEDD

[3] = molecular target: T3, annexin I (Homo sapiens, UniProt P04083); conditions: liposomes; cited from earlier work
T3 sequence (P04083 1-346): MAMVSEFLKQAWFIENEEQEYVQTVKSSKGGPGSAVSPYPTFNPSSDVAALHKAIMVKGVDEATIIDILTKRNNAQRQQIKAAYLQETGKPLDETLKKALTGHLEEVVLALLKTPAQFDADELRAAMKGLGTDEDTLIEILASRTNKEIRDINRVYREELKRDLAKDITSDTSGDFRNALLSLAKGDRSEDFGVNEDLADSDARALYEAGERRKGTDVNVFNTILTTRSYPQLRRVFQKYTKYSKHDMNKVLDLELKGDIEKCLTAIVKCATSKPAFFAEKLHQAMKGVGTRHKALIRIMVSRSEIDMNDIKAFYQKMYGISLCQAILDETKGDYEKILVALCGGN

[4] = tested on: embryonic avian tibias; assay: LPS-induced cartilage degradation in tibia organ cultures; assay type: cell-based, Chick
Method: The purpose of this study was to test the ability of calcium channel blocker BDA to inhibit cartilage degradation in embryonic avian tibias maintained in organ culture in the presence of lipopolysaccharide (LPS). Chick tibiotarsi were removed from 12 day embryos and their tarsal regions removed. These bones were maintained in organ culture as previously described (26-28). Four bones were placed in each well of a 24-well plate and cultured in 1 ml of DMEM supplemented with 50 μg/ml ascorbate and 10 μg/ml LPS (E. coli serotype 0111 :B4, catalog #L-3012, Sigma, St. Louis). The culture medium with fresh supplements was changed every other day. BDA was dissolved in DMSO at a stock concentration of 2 mM. BDA was added to the culture medium on all feeding days and tested at two concentrations, 0.5 and 2 μM. Control cultures received an equivalent concentration of DMSO. The loss of cartilage from the embryonic bones was measured as the release of proteoglycans and collagen (hydroxyproline) into the culture medium. The spent culture medium was collected with each medium change. The proteoglycan content of the culture medium was determined by a dimethyl methylene blue dye-binding assay (25). The hydroxyproline was measured by a colorimetric assay in 96 well plates (29).

[5] = tested on: OP-1; assay: endogenous OP-1 in IL-1β challenged cartilage explants (western blot); assay type: cell-based, human
Method: Full thickness articular cartilage was dissected from load bearing regions of the femoral condyles of donors with no history of joint disease within 24 hours of death. Samples from men and women (age 50 to 76) were obtained from the Regional Organ Bank of Illinois as described above. After opening the joint, the surface of the cartilage was examined grossly. The appearance of each joint was given a grade based on the Collins scale (30) as modified by Muehleman et al (31).
Tissue explants (3×3 mm) were prepared as described above and were cultured in Dulbecco's modified Eagle's medium/Hams' F12 (1/1) containing 10 ml/L of Insulin Transferrin Selenium A (ITS, Gibco), 25 μg/ml ascorbate, and 50 μg/ml gentamicin. Experimental cultures contained either recombinant human IL-1β (Genzyme), BDA compound in DMSO, or a combination of IL-1β and BDA. ITS containing medium was used to reduce or eliminate serum-contained growth factors that could mask the released OP-1 or OP-1 degradation products and create nonspecific binding of the antibodies. To reach a steady state, cartilage explants were cultured in the absence of IL-1β or BDA for 4 days (or 96 hours) followed by two days (or 48 hours) of culture with IL-1β, BDA or both IL-1β and BDA. DMSO was added to the media control groups to account for a possible effect of DMSO.
Articular cartilage explants were briefly washed with 0.9% saline, homogenized and extracted in 1 M guanidine hydrochloride in the presence of proteinase inhibitors (0.1 M ε-aminocaproic acid, 0.05 M sodium acetate, 0.005 M EDTA, 0.005 M benzamidine chloride, 0.01 M N-ethylmaleimide, 0.0005 M phenymethanesulfonyl fluoride) at pH 7.4. Samples were extracted for 3 h in the refrigerator, and the extracts, together with the media, were dialyzed against water for 48 hours at 2-8° C., lyophilized and solubilized in sample buffer (0.01 M Tris HCl, pH 6.5, 1% sodium dodecyl sulfate (SDS), 10% glycerol, 0.016% bromphenol blue, 8 M urea, 0.2 M sodium chloride with (for the reduced conditions) or without (for non-reduced conditions) dithioerythritol added (DTT), pH 6.8). Cartilage extracts and media were analyzed by western blotting. All samples were normalized to the protein concentration. Protein concentrations was determined by a colorimetric assay, using BSA as a standard (Pierce, Rockford, Ill.).
Aliquots of samples (30 μg of protein per lane) were analyzed by electrophoresis and immunoblotting. Samples were loaded onto a 12% SDS-polyacrylamide gel (PAGE) in a buffer containing 0.2 M glycine, 25 mM Tris and 3.5 mM SDS. Proteins were transferred from SDS-PAGE gels onto nitrocellulose transfer membranes overnight at 20 V, 4-8° C. in a buffer containing 12 mM Tris (pH 7.4), 6 mM Na acetate, and 0.3 mM EDTA at pH 7.4. Immunoblot analyses was done using OP-1 antibodies. […]

[6] = molecular target: T2, annexin V; assay: calcium ion flux assay in artificial vesicles containing annexin V (Calcium Green fluorescence); assay type: biochemical; conditions: 180 ug/ml Annexin V, 100 ug/ml CII Peptide where present, 2 hours
Method: Artifical vesicles containing annexin were prepared according to methods known in the art. Specifically, vesicles were prepared by drying down lipids (Avanti Polar Lipids) with nitrogen overlay. Lipids were washed once in ether and further dried under vacuum overnight. Lipids were then sonicated on ice in NMDG Buffer (150 mM N Methyl D Glucamine, and 10 mM Hepes, adjusted to ph 7.4 with HCl, then diluted to 100 mOSM with water) containing 300μM Calcium Green dye (Molecular Probes). Extravesicular dye was removed by Biobead extraction for 20 minutes.
Vesicles were diluted 1:100 in NMDG Buffer, mixed with Annexin V with or without collagen fragments (CII peptide), and incubated for 2 hours. Ca^++ fluxes were measured according to Kaneko et al.. Fluorescence was measured in a 96 well plate using the Flipr plate reader.

CN1C(=O)CN=C(c2ccccc2)c2ccccc21 [BDA 250, 1,3-dihydro-1-methyl-5-phenyl-2H-1,4-benzodiazepine-2-one]
calcium fluxes induced by annexin III [1]: inhibited | calcium fluxes induced by annexin V [2]: no effect | calcium fluxes induced by annexin I [3]: inhibited

CN1C(=O)C(NC(=O)C(N)Cc2c[nH]c3ccccc23)C=C(c2ccccc2)c2ccccc21 (centres unmarked) [BDA]
LPS induced proteoglycan release to the culture medium ([4]; 0.5 μM, compared to DMSO carrier control): intermediate loss; also recorded: intermediate amount | LPS induced collagen (hydroxyproline) release ([4]; 0.5 μM, feeding day 15): intermediate degree of collagen release | LPS induced proteoglycan release to the culture medium ([4]; 2 μM): least release | LPS induced collagen (hydroxyproline) release ([4]; 2 μM, feeding day 15): least collagen loss | LPS induced cartilage loss (release of hydroxyproline or proteoglycan) ([4]; 0.5 and 2 μM, dose dependence): dose-dependent inhibition | LPS induced collagen (hydroxyproline) release ([4]; 0.5 and 2 μM, dose dependence): dose-dependent inhibition | LPS induced proteoglycan release to the culture medium ([4]; 0.5 and 2 μM, dose dependence): dose-dependent inhibition | size of the bone and cartilage at the end of the experiments ([4]; LPS cultures): increased size of the bone and cartilage | release of pro-OP-1 domain ([5]; culture media): enhanced the release of pro-OP-1 domain | release of pro-OP-1 into culture media ([5]; day 2 of culture): dramatic release of pro-OP-1 | content of endogenous OP-1 in cartilage ([5]; human cartilage explants, IL-1 culture, 48 hours): increase in the content of endogenous OP-1; also recorded: increase in the content of endogenous anabolic factor | processing of endogenous OP-1 from pro- into mature form ([5]; human cartilage under catabolic conditions): processing of cartilage endogenous OP-1 from pro- into mature form

Annexin V: calcium and phospholipid binding protein mixed with vesicles
Fluorescence (Calcium Signal) ([6]; Lipid Ratio 65% PS/12.5% PC/12.5% PE/5% Chol): 29023 | Fluorescence (Calcium Signal) ([6]; Lipid Ratio 70% PS/12.5% PC/12.5% PE): 46454
